# Data reported in US9770434B2, “Compositions for improved body composition” (Northern Innovations Holding Corp, priority 2014, dated 2017).
# Entries after “also recorded” stand apart in the source; their conditions may differ.
# What was measured:
# Assay type in all cases: in vivo, C57BL6/J male mice
# [1] = DEXA scan of high fat diet mice (body fat %, fat mass, lean mass); settings: HFD mice; after 10 weeks of treatment
# From the text: (§1) 5 week old C57BL6/J male mice were divided into 2 groups as follows: normal diet (ND) (10% kcal/fat) or high fat diet (HFD) (60% kcal/fat) each containing the same total calories. At 12 weeks of age, the HFD group was further divided into 4 groups as follows: HFD alone, HFD supplemented with alpha-lipoic acid (HFD+ALA), HFD supplemented with curcumin (HFD+CUR), or HFD supplemented with alpha-lipoic acid plus curcumin (HFD+ALA+CUR). Based on the average food intake, the daily dose for alpha-lipoic acid in the HFD+ALA group was about 174 mg/kg, the daily dose for curcumin in the HFD+CUR group was about 65 mg/kg, and the daily dose for each component in the HFD+ALA+CUR group was similar to that in the respective groups. Each of the 5 groups contained 8-10 mice. Body weight of the mice was recorded weekly and food intake was monitored every two days. After 10 weeks of treatment mice from each group were subjected to dual-energy X-ray absorptiometry (DEXA) scan; percent (%) body fat, fat mass, and lean mass were calculated.
# [2] = Body weight of high fat diet mice during treatment; settings: HFD mice, ALA about 174 mg/kg daily, curcumin about 65 mg/kg daily; for body weight during the course of the experiment (FIG. 1): supplement in diet, recorded weekly
# From the text: as §1
# [3] = Food intake of high fat diet mice; settings: HFD mice; monitored every two days; compared to HFD mice
# From the text: as §1
Structure (SMILES),DEXA body fat % (FIG. 6) [1],DEXA fat mass (FIG. 7) [1],DEXA lean mass (FIG. 8) [1],body weight / weight gain after 11 weeks of treatment (FIG. 3) [2],body weight during the course of the experiment (FIG. 1) [2],food intake (grams) per day per gram body weight (FIG. 4) [3],food intake (kcals) per day per gram body weight (FIG. 5) [3]
"O=C(O)CCCCC1CCSS1 (racemic) [alpha-lipoic acid, 6,8-dithio octanoic acid]",failed to reduce body fat %,attenuated increase in fat mass compared to the HFD group,significant attenuation in lean mass accrual,attenuated weight gain; also recorded: efficacy at attenuating weight gain,weight gain less than the HFD mice,reduced food intake,reduced calorie intake
COc1cc(/C=C/C(=O)CC(=O)/C=C/c2ccc(O)c(OC)c2)ccc1O [curcumin],reduced the increased body fat % from a high fat diet,–,unaltered,attenuated weight gain; also recorded: efficacy at attenuating weight gain,weight gain less than the HFD mice,–,–
